Experimental data taken from patent US11951269B2, “Drug-coated medical devices” (Medtronic Vascular, Inc., priority 2018, dated 2024).

Key:
[1] = Solubility of DEX in various solvents; type: physicochemical
[2] = In vivo porcine model: coated balloon deployed in femoral arteries, drug concentration in tissue; details: for concentration at 1 day / concentration at 28 days: pig, femoral artery tissue, porcine femoral arteries, n=18, read-out: median concentration in the tissue; for concentration at 28 days: after 28 days; for vessels in which drug was detectable: porcine
Description: In vivo studies are also performed. […] After 1 day, the median sirolimus concentration in the tissue is about 0.62 μg/g, and after 28 days the median concentration is about 0.07 μg/g (n=18).

[3] = Ex-vivo model: coated balloon inflated against bovine carotid artery in simulated flow loop, drug by HPLC; details: for tissue concentration average: bovine carotid artery ex vivo, n=5
Description: The coated balloons were inflated against tissue in an ex-vivo model. Briefly, the model included a bovine carotid artery mounted in a simulated flow loop comprising appropriately sized tubing. The system was maintained at 37° C. A standard hemostasis valve and 8 Fr introducer sheath are used to introduce the coated balloon into the tubing, the balloon is tracked through the sheath and tubing into the bovine carotid artery, and the balloon is deployed (inflated to approximately 1.1 B.A.R. and held for 60 s) against the bovine carotid artery tissue. The tissue and balloon are removed for analysis. […] Briefly, the amount of drug was measured by using HPLC of extracted solutions from testing specimens, such as utilizing a solvent to solubilize and remove all remaining drug from the balloon for analysis.

| Structure (SMILES) | DEX solubility ([1]; solvent Acetone) [mg\mL] | DEX solubility ([1]; solvent Acetonitrile) [mg\mL] | DEX solubility ([1]; solvent Ethanol) [mg\mL] | DEX solubility ([1]; solvent Methanol) [mg\mL] | DEX solubility ([1]; solvent THF) [mg\mL] | concentration at 1 day ([2]; after 1 day) [ng/g] | concentration at 28 days [2] [ng/g] | vessels in which drug was detectable ([2]; after 1 day) | vessels in which drug was detectable ([2]; day 28) | tissue concentration average [3] | drug transferred to the tissue ([3]; sirolimus/urea first layer, DEX/urea second layer, bovine carotid artery, 37° C., inflated 60 s) |
| --- | --- | --- | --- | --- | --- | --- | --- | --- | --- | --- | --- |
| C[C@@H]1C[C@H]2[C@@H]3CCC4=CC(=O)C=C[C@]4(C)[C@@]3(F)[C@@H](O)C[C@]2(C)[C@@]1(O)C(=O)CO [DEX, dexamethasone] | 12 | 10 | 8 | 15 | 30 | ~0.525 | ~0.5 | four of six vessels | two of six vessels | about 22.6 μg DEX/g of tissue |  |
| CO[C@H]1C[C@@H]2CC[C@@H](C)[C@@](O)(O2)C(=O)C(=O)N2CCCC[C@H]2C(=O)O[C@H]([C@H](C)C[C@@H]2CC[C@@H](O)[C@H](OC)C2)CC(=O)[C@H](C)/C=C(\C)[C@@H](O)[C@@H](OC)C(=O)[C@H](C)C[C@H](C)/C=C/C=C/C=C/1C [sirolimus] |  |  |  |  |  | ~620 | ~70 |  |  | about 25.9 μg sirolimus/g of tissue | About 1.7% |
